What was measured:
SV-HUC-1 = format: cell-based; conditions: SV-HUC-1; ng/ml: EH 1000, Ci 6000, Mi 800, Pi 160, Pa 640, Ge 20; EH/Ci/Mi regimen
Description: (§1) The clinical grade of the chemotherapeutics (NCI Dictionary of Cancer Terms) was provided by the First Affiliated Hospital of Harbin Medical University: Pirarubicin (Pi, Wanle, Shenzhen), Paclitaxel (Pa, Taiji, Sichuan), Adriamycin (Ad, Pfizer, Jiangsu), Epirubicin Hydrochloride (EH, Haizheng, Zhejiang), Hydroxycamptothecin (Hy, Lishizhen, Hubei), Cisplatin (Ci, Haosen, Jiangsu), Gemcitabine (Ge, Haosen, Jiangsu) and Mitomycin (Mi, Haizheng, Zhejiang). The drug induced cell death was determined by a thiazolyl […] (MTT, 490 nm reading) based cell proliferation assay in the cultured cells following treatment by various concentrations of drugs for 72 hours. The relative chemoresistance to each drug of all cell lines was calculated with the lowest IC50 as a reference. The overall chemoresistance of each cell line was described as “chemoresistance index”, the numerator of the total relative IC50 to all the drugs over the number of drugs to rank the overall resistance state of each cell line to the six chemotherapeutics collectively.
(§2) The relative IC50 (fold) of each drug of all nine cell lines was normalized to the lowest IC50 in the most sensitive cell line (FIG. 2G), to describe the single drug resistance of cell lines. The overall chemoresistance of each cell line, a “chemoresistance index” (the numerator of the total relative IC50 over the number of drugs) (FIG. 2G) were calculated to rank the overall resistance state of each cell line to this six chemotherapeutics.

H-bc = experiment: MTT cell survival / IC50, H-bc cells; format: cell-based, human; conditions: H-bc; for Single drug 4X Cell Survival (%): ng/ml: EH 1000, Ci 6000, Mi 800, Pi 160, Pa 640, Ge 20, EH/Ci/Mi regimen; for Cell survival (%): Table S3, ng/ml: Pi 40, Pa 160, EH 250, Ci 1500, Mi 200, 1=Ci/Mi, 2=EH/Ci/Mi, 3=Pa/Ci/Mi, 4=Pi/Ci/Mi
Description: as §1, §2
(§3) Twenty six-drug combinations at the indicated doses were initially generated through a random number generator (using MATLAB MathWorks©, Natick, Mass., U.S.) (The upper half of Table 1). The cell survival (% over the not drug control) of treated cells was determined and then used for a calculation of the average cumulative cell survival (%, ACS: the sum of cell survival (%) per combination divided by the number of cell lines tested). ACS<30% was used to separate the effective from the not-effective combinations.

SCaBER = experiment: MTT cell survival / IC50, SCaBER squamous carcinoma cells; format: cell-based, human; conditions: for Single drug 4X Cell Survival (%): ng/ml: EH 1000, Ci 6000, Mi 800, Pi 160, Pa 640, Ge 20, EH/Ci/Mi regimen; for Cell survival (%): Table S3, ng/ml: Pi 40, Pa 160, EH 250, Ci 1500, Mi 200, 1=Ci/Mi, 2=EH/Ci/Mi, 3=Pa/Ci/Mi, 4=Pi/Ci/Mi
Description: as §1, §2

5637 = experiment: MTT cell survival / IC50, 5637 cells; format: cell-based, human; conditions: 5637; for Single drug 4X Cell Survival (%): ng/ml: EH 1000, Ci 6000, Mi 800, Pi 160, Pa 640, Ge 20, EH/Ci/Mi regimen; for Cell survival (%): Table S3, ng/ml: Pi 40, Pa 160, EH 250, Ci 1500, Mi 200, 1=Ci/Mi, 2=EH/Ci/Mi, 3=Pa/Ci/Mi, 4=Pi/Ci/Mi
Description: as §1, §2, §3

[1] = test system: bladder cancer cell lines; experiment: Average cumulative cell survival (ACS) over the panel of cell lines tested; format: cell-based, human; conditions: for ACS (%) for cancer cells: seven cancer cell lines, ng/ml: EH 1000, Ci 6000, Mi 800, Pi 160, Pa 640, Ge 20, EH/Ci/Mi regimen; for ACS (%): eight cell lines, Table S3, ng/ml: Pi 40, Pa 160, EH 250, Ci 1500, Mi 200, 1=Ci/Mi, 2=EH/Ci/Mi, 3=Pa/Ci/Mi, 4=Pi/Ci/Mi
Description: as §1
The “Differential Evolution” algorithm guided experimental optimization (DE) consisted of three iterative operations: generating drug combinations of experimental testing, acquiring the efficacy of the generated drug combinations with biological assays and recalculating further improved drug combinations using a feedback search algorithm. This example first tested twenty drug combinations at randomized doses. These drug combinations were generated from a random integer matrix generator, coded in MATLAB™ language. These twenty drug combinations were then experimentally tested for cancer cell cytotoxicity. The experimental data were then subjected to calculation with a DE algorithm for new drug combinations based on three major mathematical calculations: “Mutation”, “Crossover” and “Selection”. The equations for each step can be found in the main test. The equations for each step are coded in MATLAB™ language.
as §3, with “combinations. Nine of the twenty combinations tested in the 1st round of iteration fell into this category (the lower half of Table 1).” for “combinations.”

UM-UC-3 = experiment: MTT cell survival / IC50, UM-UC-3 cells; format: cell-based, human; conditions: UM-UC-3; for Single drug 4X Cell Survival (%): ng/ml: EH 1000, Ci 6000, Mi 800, Pi 160, Pa 640, Ge 20, EH/Ci/Mi regimen; for Cell survival (%): Table S3, ng/ml: Pi 40, Pa 160, EH 250, Ci 1500, Mi 200, 1=Ci/Mi, 2=EH/Ci/Mi, 3=Pa/Ci/Mi, 4=Pi/Ci/Mi
Description: as §1, §2, §3

EJ = experiment: MTT cell survival / IC50, EJ cells; format: cell-based, human; conditions: for Single drug 4X Cell Survival (%): ng/ml: EH 1000, Ci 6000, Mi 800, Pi 160, Pa 640, Ge 20, EH/Ci/Mi regimen; for Cell survival (%): Table S3, ng/ml: Pi 40, Pa 160, EH 250, Ci 1500, Mi 200, 1=Ci/Mi, 2=EH/Ci/Mi, 3=Pa/Ci/Mi, 4=Pi/Ci/Mi
Description: as §1, §2, §3

T24 = experiment: MTT cell survival / IC50, T24 cells; format: cell-based, human; conditions: for Single drug 4X Cell Survival (%): ng/ml: EH 1000, Ci 6000, Mi 800, Pi 160, Pa 640, Ge 20, EH/Ci/Mi regimen; for Cell survival (%): Table S3, ng/ml: Pi 40, Pa 160, EH 250, Ci 1500, Mi 200, 1=Ci/Mi, 2=EH/Ci/Mi, 3=Pa/Ci/Mi, 4=Pi/Ci/Mi
Description: as §1, §2, §3

Biu87 = experiment: MTT cell survival / IC50, Biu87 cells; format: cell-based, human; conditions: Biu87; for Single drug 4X Cell Survival (%): ng/ml: EH 1000, Ci 6000, Mi 800, Pi 160, Pa 640, Ge 20, EH/Ci/Mi regimen; for Cell survival (%): Table S3, ng/ml: Pi 40, Pa 160, EH 250, Ci 1500, Mi 200, 1=Ci/Mi, 2=EH/Ci/Mi, 3=Pa/Ci/Mi, 4=Pi/Ci/Mi
Description: as §1, §2, §3

J-82 = experiment: MTT cell survival / IC50, J-82 cells; format: cell-based, human; conditions: J82; Table S3; ng/ml: Pi 40, Pa 160, EH 250, Ci 1500, Mi 200; 1=Ci/Mi, 2=EH/Ci/Mi, 3=Pa/Ci/Mi, 4=Pi/Ci/Mi
Description: as §1, §2, §3

Row | Structure (SMILES) | Single drug 4X Cell Survival (%) (SV-HUC-1) | Single drug 4X Cell Survival (%) (H-bc) | Single drug 4X Cell Survival (%) (SCaBER) | Single drug 4X Cell Survival (%) 5637 [%] | ACS (%) for cancer cells [1] [%] | Single drug 4X Cell Survival (%) (UM-UC-3) | Single drug 4X Cell Survival (%) (EJ) | Single drug 4X Cell Survival (%) (T24) | Single drug 4X Cell Survival (%) (Biu87) | Cell survival (%) (H-bc) | Cell survival (%) (SCaBER) | Cell survival (%) (J-82) | Cell survival (%) 5637 [%] | ACS (%) [1] [%] | Cell survival (%) (UM-UC-3) | Cell survival (%) (EJ) | Cell survival (%) (T24) | Cell survival (%) (Biu87)
1 | Nc1ccn([C@@H]2O[C@H](CO)[C@@H](O)C2(F)F)c(=O)n1 [Ge, Gemcitabine] | 87.83 | 83.17 | 30.87 | 30.06 | 42.19 | 46.97 | 31.95 | 41.49 | 30.82 | – | – | – | – | – | – | – | – | –
2 | CC(=O)O[C@H]1C(=O)[C@@]2(C)[C@H]([C@H](OC(=O)c3ccccc3)[C@]3(O)C[C@H](OC(=O)[C@H](O)[C@@H](NC(=O)c4ccccc4)c4ccccc4)C(C)=C1C3(C)C)[C@]1(OC(C)=O)CO[C@@H]1C[C@@H]2O [Pa, Paclitaxel] | 80.17 | 12.89 | 42.21 | 2.09 | 20.89 | 27.74 | 26.38 | 17.31 | 17.58 | 13.96 | 57.91 | 38.51 | 6.45 | 28.08 | 40.09 | 33.05 | 11.55 | 23.08
3 | COc1cccc2c1C(=O)c1c(O)c3c(c(O)c1C2=O)C[C@@](O)(C(=O)CO)CC3O[C@H]1C[C@H](N)[C@H](O[C@@H]2CCCCO2)[C@H](C)O1 (stereo partly drawn) [Pi, (3S)-3-glycoloyl-3,5,12-trihydroxy-10-methoxy-6,11-dioxo-1,2,3,4,6,11-hexahydrotetracen-1-yl 3-amino-2,3,6-trideoxy-4-O-[(2R)-tetrahydro-2H-pyran-2-yl]-α-L-lyxo-hexopyranoside] | 91.79 | 16.04 | 10.24 | 3.48 | 21.32 | 31.44 | 21.25 | 39.8 | 26.98 | 86.89 | 30.04 | 55.37 | 29.22 | 48.44 | 65.59 | 30.38 | 48.33 | 41.67
